Where a name gives a salt, the structure may show the parent alone. Calls of active or inactive are those of the source.
Tests used:
[1] = target: T1, Heat shock factor protein 1 (Mus musculus, UniProt P38532); experiment: enhancement of HSF1-driven luciferase signal – cell-based, NIH3T3, luminescence, dose retest, confirmation (AID 435004); assay type: functional;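 note: stress induced by proteasome inhibitor MG132 added 30 min after compound; luciferase reporter driven by HSF1 response element in NIH3T3 cells; actives raise luminescence as potentiators of the MG132 stress response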
T1 sequence (P38532 whole entry): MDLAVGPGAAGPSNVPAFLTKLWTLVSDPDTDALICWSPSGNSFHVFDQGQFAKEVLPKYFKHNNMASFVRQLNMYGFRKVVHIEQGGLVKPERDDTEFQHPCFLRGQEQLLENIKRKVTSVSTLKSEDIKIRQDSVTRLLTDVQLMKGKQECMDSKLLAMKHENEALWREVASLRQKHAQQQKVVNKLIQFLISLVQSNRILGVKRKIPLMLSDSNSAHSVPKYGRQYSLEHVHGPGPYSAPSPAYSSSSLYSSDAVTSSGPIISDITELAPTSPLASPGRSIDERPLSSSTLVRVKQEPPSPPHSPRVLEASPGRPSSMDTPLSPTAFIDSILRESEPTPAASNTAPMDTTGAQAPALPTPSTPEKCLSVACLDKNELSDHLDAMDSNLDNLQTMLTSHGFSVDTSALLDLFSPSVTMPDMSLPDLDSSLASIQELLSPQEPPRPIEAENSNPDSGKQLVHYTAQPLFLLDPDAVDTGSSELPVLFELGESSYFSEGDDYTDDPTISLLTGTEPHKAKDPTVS

[2] = system: H4; experiment: Luminescence Cell-Based Dose Response HTS to Identify Activators of 5'UTR Stem-Loop Driven Prion Protein mRNA Translation in H4 Neuroglioblastoma Cells. [Related pubchem assays: 1829 (Project Summary), 1814 (Primary HTS)]; assay type: functional; conditions: Homo sapiens
[3] = Luminescence Cell-Based Dose Response HTS to Identify Activators of Luciferase Translation or Activity in H4 […] Cells. [Related pubchem assays: 1829 (Project Summary), 1814 (Primary HTS)]; assay type: functional
[4] = Luminescence Cell-Based Dose Confirmation HTS to Identify Activators of 5'UTR Stem-Loop Driven Alpha-Synuclein mRNA Translation in H4 Neuroglioblastoma Cells. [Related pubchem assays: 1829 (Project Summary), 1814 (Primary HTS)]; assay type: functional
[5] = target: T2, Ubiquitin-conjugating enzyme E2 N (Homo sapiens, UniProt P61088); assay type: functional;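 note: Dose-response confirmation in a TR-FRET assay detecting UBC13-driven polyubiquitin chain formation, inhibition measured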
T2 sequence (P61088 whole entry): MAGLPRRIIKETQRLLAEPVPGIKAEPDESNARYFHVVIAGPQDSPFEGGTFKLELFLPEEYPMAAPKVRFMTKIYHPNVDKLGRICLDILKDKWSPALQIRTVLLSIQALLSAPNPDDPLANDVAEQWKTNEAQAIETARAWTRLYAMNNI

[6] = target: T1, Heat shock factor protein 1; experiment: decrease of HSF1-responsive luciferase luminescence – cell-based, NIH3T3, dose retest, confirmation (AID 2382); assay type: functional;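 note: NIH3T3 fibroblasts with HSF1-driven luciferase reporter stressed by proteasome inhibitor MG132; luminescence from HSF1-driven luciferase expression after 8 hours of MG132 stress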
[7] = target: T3, Rac GTPase-activating protein 1 (Homo sapiens, UniProt Q9H0H5); experiment: blockers of MgcRacGAP-driven Rac1 GTP hydrolysis – biochemical, ADP Hunter fluorescence, primary and confirmatory, confirmation (AID 624330); assay type: functional
T3 sequence (Q9H0H5 whole entry): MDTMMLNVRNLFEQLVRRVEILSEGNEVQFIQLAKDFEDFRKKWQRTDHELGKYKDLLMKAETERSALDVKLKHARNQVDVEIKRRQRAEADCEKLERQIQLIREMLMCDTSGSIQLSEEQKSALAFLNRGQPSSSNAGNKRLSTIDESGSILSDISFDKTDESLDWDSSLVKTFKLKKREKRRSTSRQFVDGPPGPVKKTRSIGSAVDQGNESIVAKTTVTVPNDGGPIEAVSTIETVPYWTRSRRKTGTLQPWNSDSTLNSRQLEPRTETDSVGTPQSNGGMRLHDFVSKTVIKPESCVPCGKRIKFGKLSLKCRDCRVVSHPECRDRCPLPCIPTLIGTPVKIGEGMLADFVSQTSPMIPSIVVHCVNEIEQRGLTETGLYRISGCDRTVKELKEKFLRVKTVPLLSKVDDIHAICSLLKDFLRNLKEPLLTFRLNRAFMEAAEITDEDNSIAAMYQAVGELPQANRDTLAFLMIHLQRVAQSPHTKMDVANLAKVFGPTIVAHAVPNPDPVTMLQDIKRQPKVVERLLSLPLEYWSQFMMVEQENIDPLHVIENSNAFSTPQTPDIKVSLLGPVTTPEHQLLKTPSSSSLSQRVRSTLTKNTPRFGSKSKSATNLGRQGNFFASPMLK

[8] = target: T4, Cytochrome P450 1A2 (Homo sapiens, UniProt P05177);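 note: PubChem cytochrome P450 panel assay, CYP1A2 panel member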
T4 sequence (P05177 whole entry): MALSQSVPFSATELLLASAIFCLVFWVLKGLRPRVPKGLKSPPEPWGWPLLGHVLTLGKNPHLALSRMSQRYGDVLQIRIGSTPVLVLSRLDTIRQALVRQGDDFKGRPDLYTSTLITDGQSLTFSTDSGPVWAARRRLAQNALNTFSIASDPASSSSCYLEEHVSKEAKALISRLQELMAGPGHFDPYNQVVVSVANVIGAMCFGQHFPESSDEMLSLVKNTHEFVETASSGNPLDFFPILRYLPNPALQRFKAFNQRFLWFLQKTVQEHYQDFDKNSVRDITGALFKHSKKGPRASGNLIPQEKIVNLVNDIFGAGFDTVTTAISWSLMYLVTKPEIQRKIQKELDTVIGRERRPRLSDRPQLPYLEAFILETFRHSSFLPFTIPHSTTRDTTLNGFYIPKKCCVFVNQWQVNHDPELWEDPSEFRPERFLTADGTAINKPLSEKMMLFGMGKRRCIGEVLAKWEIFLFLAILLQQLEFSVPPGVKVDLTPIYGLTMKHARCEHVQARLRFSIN

[9] = target: Cytochrome P450 3A4 (Homo sapiens, UniProt P08684);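 note: CYP3A4 tested as one member of a cytochrome P450 panel screen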
Chain of Cytochrome P450 3A4 (P08684 whole entry): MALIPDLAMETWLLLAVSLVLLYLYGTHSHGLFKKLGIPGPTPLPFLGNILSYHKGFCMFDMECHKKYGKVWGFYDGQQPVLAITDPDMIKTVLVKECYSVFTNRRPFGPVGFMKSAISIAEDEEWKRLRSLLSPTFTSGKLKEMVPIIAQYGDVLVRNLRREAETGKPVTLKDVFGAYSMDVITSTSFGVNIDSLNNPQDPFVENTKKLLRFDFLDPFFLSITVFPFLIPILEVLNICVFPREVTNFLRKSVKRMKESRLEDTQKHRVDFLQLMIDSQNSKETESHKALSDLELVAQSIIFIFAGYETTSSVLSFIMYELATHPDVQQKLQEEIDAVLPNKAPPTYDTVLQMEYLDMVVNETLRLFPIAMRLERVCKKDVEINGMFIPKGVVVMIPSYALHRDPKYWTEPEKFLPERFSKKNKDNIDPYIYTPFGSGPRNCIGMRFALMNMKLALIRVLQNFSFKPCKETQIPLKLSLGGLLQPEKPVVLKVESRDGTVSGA

[10] = reduction of Shn3 3'UTR-driven luciferase in osteoblasts – cell-based, Clone20 osteoblasts, firefly luciferase, cherry-picked, dose response (AID 624132); assay type: functional;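 note: firefly luciferase luminescence from reporter carrying the Shn3 3'UTR in osteoblasts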
[11] = non-specific 3'UTR reporter inhibition in Clone20-Shn3RL – cell-based, Renilla luciferase, cherry-picked, counter-screen for Shn3 inhibitor project, dose response (AID 624133); assay type: functional

Structure (SMILES): NS(=O)(=O)c1ccc(CCNC(=O)c2ccc([N+](=O)[O-])s2)cc1
- EC50 [1]: 15.7 µM (active)

Structure (SMILES): CCOC(=O)c1c(N2C(=O)C3C4C=CC(O4)C3C2=O)sc2c1CCCC2 (stereo unspecified)
- EC50 [1]: > 260 µM (inactive)

Structure (SMILES): CCOc1ccc(NC(=O)c2cccc3ccccc23)cc1
- EC50 [2]: > 120 µM (not active)
- EC50 [3]: 11.5 µM (active)
- EC50 [4]: 72.3 µM (active)

Structure (SMILES): CCc1ccc(NC(=O)c2cnc3scc(C)n3c2=O)cc1
- EC50 [2]: 12.6 µM (active)
- EC50 [3]: 17.6 µM (active)
- EC50 [4]: 9.98 µM (active)

Structure (SMILES): O=C(CCS(=O)(=O)c1ccccc1)Nc1ccccn1
- EC50 [1]: > 260 µM (inactive)

Structure (SMILES): O=[N+]([O-])c1c(-c2cn[nH]c2)n[nH]c1-c1cn[nH]c1
- IC50 [5]: > 20 µM (inactive)

Structure (SMILES): CSc1ccc(N2C(=O)NC3(CCCCC3)C2=O)cc1
- EC50 [2]: 19.7 µM (active)
- EC50 [3]: 96.3 µM (active)
- EC50 [4]: 20.4 µM (active)

Structure (SMILES): O=C(CSc1ncccn1)NCCc1ccccc1
- EC50 [6]: > 195 µM (not active)

Structure (SMILES): COc1cccc(-n2c(SCC(=O)NCC3CCCO3)nc3c(c2=O)SCC3)c1 (stereo unspecified)
- EC50 [6]: > 195 µM (not active)

Structure (SMILES): COCCCNC(=O)c1ccc(NS(C)(=O)=O)cc1
- EC50 [1]: > 260 µM (inactive)

Structure (SMILES): Cc1ccc(NC(=O)CN(C)C2CCCCC2)cc1Cl
- EC50 [6]: > 195 µM (not active)
- IC50 [7]: 152 µM (active)

Structure (SMILES): O=C(CSCc1ccccc1)Nc1ccc2c(c1)OCO2
- EC50 [2]: 18.6 µM (active)
- EC50 [3]: 2.27 µM (inconclusive)
- EC50 [4]: 26 µM (active)

Structure (SMILES): CC(=O)Nc1ccc(S(=O)(=O)N2CCN(CC(O)COc3ccc4ccccc4c3)CC2)cc1 (stereo unspecified)
- IC50 [5]: > 20 µM (inactive)

Structure (SMILES): COc1cccc(CNc2ccc([N+](=O)[O-])cc2Cl)c1O
- EC50 [1]: 163 µM (active)

Structure (SMILES): Cc1ccc2c(c1)c1cccc3c1n2CCN3CCC(N)=O
- EC50 [2]: 9.21 µM (active)
- EC50 [3]: > 120 µM (not active)
- EC50 [4]: 1.71 µM (active)

Structure (SMILES): Cc1ccc(SCCCCN2CCOCC2)cc1
- EC50 [1]: > 260 µM (inactive)

Structure (SMILES): CC(C)(C)c1cc(-n2ccnc2)n2ncc(-c3ccc(Cl)cc3)c2n1
- EC50 [2]: 78.9 µM (active)
- EC50 [3]: 13.7 µM (active)
- EC50 [4]: > 120 µM (not active)

Structure (SMILES): NC(CSCc1cccc(Br)c1)C(=O)O (stereo unspecified)
- EC50 [1]: > 260 µM (inactive)

Structure (SMILES): Oc1ccccc1N1CCN(c2ncnc3scc(-c4ccc(F)cc4)c23)CC1
- EC50 [6]: > 195 µM (not active)

Structure (SMILES): COc1ccc([C@@H]2[C@@H]3C(=O)N(C(C)(C)C)C(=O)[C@@H]3[C@]3(Cc4ccccc4)C(=O)N(c4cccc(C)c4)C(=O)N23)cc1
- EC50 [2]: > 120 µM (not active)
- EC50 [3]: > 120 µM (not active)
- EC50 [4]: > 120 µM (not active)

Structure (SMILES): CCCNC(=O)NC1C(NC(=O)NCCC)N(C)C(=O)N1C (stereo unspecified)
- EC50 [6]: > 195 µM (not active)

Structure (SMILES): COc1ccccc1NC(=O)[C@H](COCc1ccccc1)NC(=O)OC(C)(C)C
- AC50 [8]: 25.1 µM (inconclusive)
- EC50 [6]: > 195 µM (not active)
- AC50 [9]: 39.8 µM (inconclusive)

Structure (SMILES): C=CCn1c(C)cc(C(=O)COC(=O)CNC(=O)c2ccccc2)c1C
- EC50 [6]: 2.44 µM (active)

Structure (SMILES): CC1=CC(C)=Nc2cc(C)ccc2N1
- EC50 [2]: 41.1 µM (active)
- EC50 [3]: > 60 µM (not active)
- EC50 [4]: 33.3 µM (active)

Structure (SMILES): CCOc1ccc(NC(=O)C2CC(=O)N3CCCN=C3S2)cc1 (stereo unspecified)
- EC50 [1]: > 260 µM (inactive)

Structure (SMILES): Cc1ccc(S(=O)(=O)n2ccc(=O)[nH]2)cc1
- EC50 [6]: > 195 µM (not active)

Structure (SMILES): COc1ccc([C@H]2CC(=O)C=C(c3ccc4c(c3)OCO4)C2)cc1OC
- AC50 [10]: 58.3 µM (active)
- AC50 [11]: 28.9 µM (active)

Structure (SMILES): O=C(Cc1ccccc1)Nc1cc(Cl)ccc1Sc1ccccc1
- EC50 [1]: > 260 µM (inactive)

Structure (SMILES): CN(C)c1ccc(/C=N/NC(=O)c2ccccc2Cl)cc1
- EC50 [6]: > 195 µM (not active)

Structure (SMILES): COc1cc(/C=N/N2CCN(C3c4ccccc4-c4ccccc43)CC2)cc(OC)c1OC
- EC50 [1]: > 260 µM (inactive)

Structure (SMILES): CN1CCCC(CC2c3ccccc3Sc3ccccc32)C1 (stereo unspecified) [METHIXENE HYDROCHLORIDE]
- IC50 [5]: > 20 µM (inactive)
